Reference: ChEMBL document CHEMBL1201862, “PubChem BioAssay data set” (2004)
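Test compounds were applied to cells in 96-well plates for 48 hours at 5 doses. Abbreviation: GI50, concentration required for 50% inhibition of growth.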 Active and inactive are the calls of the source. No stated cut-off is given here; in the data, active = GI50 up to about 1.1 µM and inactive = higher.

Columns and labels:
Assay in all cases: inhibition of tumour cell growth, NCI panel, 48 h
HOP-92 = tested on: HOP-92
SN12C = tested on: SN12C
HL-60 = tested on: HL-60
BT-549 = tested on: BT-549
T47D = tested on: T47D
KM12 = tested on: KM12
Malme-3M = tested on: Malme-3M
DU-145 = tested on: DU-145
SK-MEL-5 = tested on: SK-MEL-5
UO-31 = tested on: UO-31
IGROV-1 = tested on: IGROV-1
MDA-N = tested on: MDA-N
OVCAR-8 = tested on: OVCAR-8
OVCAR-4 = tested on: OVCAR-4
MOLT-4 = tested on: MOLT-4
COLO 205 = tested on: COLO 205
SF-268 = tested on: SF-268
NCI-H226 = tested on: NCI-H226
NCI-H522 = tested on: NCI-H522
CCRF-CEM = tested on: CCRF-CEM
SK-MEL-2 = tested on: SK-MEL-2
SF-295 = tested on: SF-295
SNB-75 = tested on: SNB-75
SR = tested on: SR
LOX IMVI = tested on: LOX IMVI
M14 = tested on: M14
HCT-116 = tested on: HCT-116
SF-539 = tested on: SF-539
K562 = tested on: K562
NCI/ADR-RES = tested on: NCI/ADR-RES
OVCAR-5 = tested on: OVCAR-5
A549 = tested on: A549
HCT-15 = tested on: HCT-15
SW-620 = tested on: SW-620
786-0 = tested on: 786-0
MDA-MB-435 = tested on: MDA-MB-435
PC-3 = tested on: PC-3
RPMI-8226 = tested on: RPMI-8226
EKVX = tested on: EKVX
NCI-H23 = tested on: NCI-H23
Hs-578T = tested on: Hs-578T
OVCAR-3 = tested on: OVCAR-3
CAKI-1 = tested on: CAKI-1
RXF 393 = tested on: RXF 393
SNB-19 = tested on: SNB-19
SK-OV-3 = tested on: SK-OV-3
HOP-62 = tested on: HOP-62
HT-29 = tested on: HT-29
SK-MEL-28 = tested on: SK-MEL-28
NCI-H460 = tested on: NCI-H460
ACHN = tested on: ACHN
UACC-62 = tested on: UACC-62
MDA-MB-231 = tested on: MDA-MB-231
TK-10 = tested on: TK-10
A498 = tested on: A498
U-251 = tested on: U-251
UACC-257 = tested on: UACC-257
HCC 2998 = tested on: HCC 2998

COc1ccc(C2=NN(c3ccccc3)C(c3cc4cc(Br)ccc4nc3Cl)C2)cc1 (centres undefined)
GI50 (HOP-92): > 25 µM (inactive)
GI50 (SN12C): > 25 µM (inactive)
GI50 (HL-60): > 25 µM (inactive)
GI50 (BT-549): > 25 µM (inactive)
GI50 (T47D): > 25 µM (inactive)
GI50 (KM12): 11.4 µM (inactive)
GI50 (Malme-3M): > 25 µM (inactive)
GI50 (DU-145): > 25 µM (inactive)
GI50 (SK-MEL-5): > 25 µM (inactive)
GI50 (UO-31): > 25 µM (inactive)
GI50 (IGROV-1): 15.2 µM (inactive)
GI50 (MDA-N): 20.8 µM (inactive)
GI50 (OVCAR-8): > 25 µM (inactive)
GI50 (OVCAR-4): 20.3 µM (inactive)
GI50 (MOLT-4): > 25 µM (inactive)
GI50 (COLO 205): 9.71 µM (inactive)
GI50 (SF-268): > 25 µM (inactive)
GI50 (NCI-H226): > 25 µM (inactive)
GI50 (NCI-H522): 16.7 µM (inactive)
GI50 (CCRF-CEM): 24.2 µM (inactive)
GI50 (SK-MEL-2): > 25 µM (inactive)
GI50 (SF-295): 9.51 µM (inactive)
GI50 (SNB-75): > 25 µM (inactive)
GI50 (SR): 16.3 µM (inactive)
GI50 (LOX IMVI): > 25 µM (inactive)
GI50 (M14): > 25 µM (inactive)
GI50 (HCT-116): 17.5 µM (inactive)
GI50 (SF-539): > 25 µM (inactive)
GI50 (K562): 14.1 µM (inactive)
GI50 (NCI/ADR-RES): > 25 µM (inactive)
GI50 (OVCAR-5): > 25 µM (inactive)
GI50 (A549): 15.1 µM (inactive)
GI50 (HCT-15): 11.6 µM
GI50 (SW-620): 24.9 µM (inactive)
GI50 (786-0): > 25 µM (inactive)
GI50 (MDA-MB-435): 14.3 µM (inactive)
GI50 (PC-3): 23 µM (inactive)
GI50 (RPMI-8226): > 25 µM (inactive)
GI50 (EKVX): 11.9 µM (inactive)
GI50 (NCI-H23): > 25 µM (inactive)
GI50 (Hs-578T): > 25 µM (inactive)
GI50 (OVCAR-3): > 25 µM (inactive)
GI50 (CAKI-1): 22.8 µM (inactive)
GI50 (RXF 393): > 25 µM (inactive)
GI50 (SNB-19): > 25 µM (inactive)
GI50 (SK-OV-3): > 25 µM (inactive)
GI50 (HOP-62): 18.8 µM (inactive)
GI50 (HT-29): > 25 µM (inactive)
GI50 (SK-MEL-28): > 25 µM (inactive)

O=C(Cn1c2ccc(Br)cc2c2nc3ccccc3nc21)NCc1ccccc1
GI50 (HOP-92): 2.01 µM (inactive)
GI50 (SN12C): > 100 µM (inactive)
GI50 (BT-549): 39.9 µM (inactive)
GI50 (NCI-H460): > 100 µM (inactive)
GI50 (T47D): 4.1 µM (inactive)
GI50 (KM12): > 100 µM (inactive)
GI50 (Malme-3M): 41.7 µM (inactive)
GI50 (DU-145): > 100 µM (inactive)
GI50 (SK-MEL-5): > 100 µM (inactive)
GI50 (UO-31): > 100 µM (inactive)
GI50 (IGROV-1): 67 µM (inactive)
GI50 (ACHN): 13.4 µM (inactive)
GI50 (UACC-62): 24.4 µM (inactive)
GI50 (MDA-N): > 100 µM (inactive)
GI50 (OVCAR-8): 23.4 µM (inactive)
GI50 (OVCAR-4): 53.1 µM (inactive)
GI50 (MOLT-4): > 100 µM (inactive)
GI50 (COLO 205): > 100 µM (inactive)
GI50 (MDA-MB-231): 35.4 µM (inactive)
GI50 (TK-10): 17.7 µM (inactive)
GI50 (SF-268): 38 µM (inactive)
GI50 (NCI-H226): 78.7 µM (inactive)
GI50 (CCRF-CEM): > 100 µM (inactive)
GI50 (SK-MEL-2): 25.3 µM (inactive)
GI50 (SF-295): 29 µM (inactive)
GI50 (SNB-75): 4.45 µM (inactive)
GI50 (SR): 39.4 µM (inactive)
GI50 (LOX IMVI): 42.9 µM (inactive)
GI50 (M14): 89.9 µM (inactive)
GI50 (HCT-116): 94.6 µM (inactive)
GI50 (K562): > 100 µM (inactive)
GI50 (NCI/ADR-RES): > 100 µM (inactive)
GI50 (OVCAR-5): > 100 µM (inactive)
GI50 (A549): > 100 µM (inactive)
GI50 (HCT-15): > 100 µM
GI50 (SW-620): > 100 µM (inactive)
GI50 (786-0): 13 µM (inactive)
GI50 (MDA-MB-435): > 100 µM (inactive)
GI50 (PC-3): > 100 µM (inactive)
GI50 (A498): 31.2 µM (inactive)
GI50 (RPMI-8226): > 100 µM (inactive)
GI50 (U-251): 15 µM (inactive)
GI50 (NCI-H23): 37.7 µM (inactive)
GI50 (Hs-578T): 22.1 µM (inactive)
GI50 (UACC-257): > 100 µM (inactive)
GI50 (OVCAR-3): > 100 µM (inactive)
GI50 (CAKI-1): 26.8 µM (inactive)
GI50 (RXF 393): 12 µM (inactive)
GI50 (SNB-19): 22.3 µM (inactive)
GI50 (SK-OV-3): 44.3 µM (inactive)
GI50 (HOP-62): 23 µM (inactive)
GI50 (HCC 2998): > 100 µM (inactive)
GI50 (HT-29): > 100 µM (inactive)
GI50 (SK-MEL-28): > 100 µM (inactive)

Cc1ccc2c(c1)NC(=O)CCSSCCC(=O)N2
GI50 (HOP-92): > 100 µM (inactive)
GI50 (SN12C): > 100 µM (inactive)
GI50 (HL-60): > 100 µM (inactive)
GI50 (BT-549): > 100 µM (inactive)
GI50 (NCI-H460): > 100 µM (inactive)
GI50 (T47D): > 100 µM (inactive)
GI50 (KM12): > 100 µM (inactive)
GI50 (Malme-3M): > 100 µM (inactive)
GI50 (DU-145): > 100 µM (inactive)
GI50 (SK-MEL-5): > 100 µM (inactive)
GI50 (UO-31): > 100 µM (inactive)
GI50 (IGROV-1): > 100 µM (inactive)
GI50 (ACHN): > 100 µM (inactive)
GI50 (UACC-62): > 100 µM (inactive)
GI50 (MDA-N): > 100 µM (inactive)
GI50 (OVCAR-8): > 100 µM (inactive)
GI50 (OVCAR-4): > 100 µM (inactive)
GI50 (MOLT-4): > 100 µM (inactive)
GI50 (COLO 205): > 100 µM (inactive)
GI50 (MDA-MB-231): > 100 µM (inactive)
GI50 (TK-10): > 100 µM (inactive)
GI50 (SF-268): > 100 µM (inactive)
GI50 (NCI-H226): > 100 µM (inactive)
GI50 (NCI-H522): > 100 µM (inactive)
GI50 (CCRF-CEM): > 100 µM (inactive)
GI50 (SK-MEL-2): > 100 µM (inactive)
GI50 (SF-295): > 100 µM (inactive)
GI50 (SR): > 100 µM (inactive)
GI50 (LOX IMVI): > 100 µM (inactive)
GI50 (M14): > 100 µM (inactive)
GI50 (HCT-116): > 100 µM (inactive)
GI50 (SF-539): > 100 µM (inactive)
GI50 (K562): > 100 µM (inactive)
GI50 (NCI/ADR-RES): > 100 µM (inactive)
GI50 (OVCAR-5): > 100 µM (inactive)
GI50 (A549): > 100 µM (inactive)
GI50 (HCT-15): > 100 µM
GI50 (SW-620): > 100 µM (inactive)
GI50 (786-0): > 100 µM (inactive)
GI50 (MDA-MB-435): > 100 µM (inactive)
GI50 (PC-3): > 100 µM (inactive)
GI50 (A498): > 100 µM (inactive)
GI50 (RPMI-8226): > 100 µM (inactive)
GI50 (U-251): > 100 µM (inactive)
GI50 (EKVX): > 100 µM (inactive)
GI50 (NCI-H23): > 100 µM (inactive)
GI50 (Hs-578T): > 100 µM (inactive)
GI50 (UACC-257): > 100 µM (inactive)
GI50 (OVCAR-3): > 100 µM (inactive)
GI50 (CAKI-1): > 100 µM (inactive)
GI50 (RXF 393): > 100 µM (inactive)
GI50 (SNB-19): > 100 µM (inactive)
GI50 (SK-OV-3): > 100 µM (inactive)
GI50 (HOP-62): > 100 µM (inactive)
GI50 (HT-29): > 100 µM (inactive)
GI50 (SK-MEL-28): > 100 µM (inactive)
